# Data from patent US9399626B2, “2-thiopyrimidinones” (Pfizer Inc., priority 2011, dated 2016).
# Structures can show the parent of a compound that is named as a salt.
# Biological target: T1, MPO (purified from human polynuclear leukocytes) (Homo sapiens, UniProt P05164)
# T1 construct: purified from human polynuclear leukocytes; purchased Calbiochem/EMD Biosciences; host or cells: human polynuclear leukocytes (natural source)
# Test: MPO Amplex Red Activity Assay
# Type: biochemical
# Conditions: Table 1, 2 μM H2O2, pH 7.4
# Procedure, shortened: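 Potency is given as kinact/KI: kobs values from 600 s progress curves, minus the uninhibited rate, are fit against inhibitor concentration. Reactions use 2 μM H2O2, 30 μM Amplex Red, pH 7.4 phosphate buffer with NaCl, DTPA and 2% DMSO, started with […] human MPO. Readout is resorufin fluorescence, catalase background subtracted.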
# T1 sequence (P05164 279-745 limits assumed): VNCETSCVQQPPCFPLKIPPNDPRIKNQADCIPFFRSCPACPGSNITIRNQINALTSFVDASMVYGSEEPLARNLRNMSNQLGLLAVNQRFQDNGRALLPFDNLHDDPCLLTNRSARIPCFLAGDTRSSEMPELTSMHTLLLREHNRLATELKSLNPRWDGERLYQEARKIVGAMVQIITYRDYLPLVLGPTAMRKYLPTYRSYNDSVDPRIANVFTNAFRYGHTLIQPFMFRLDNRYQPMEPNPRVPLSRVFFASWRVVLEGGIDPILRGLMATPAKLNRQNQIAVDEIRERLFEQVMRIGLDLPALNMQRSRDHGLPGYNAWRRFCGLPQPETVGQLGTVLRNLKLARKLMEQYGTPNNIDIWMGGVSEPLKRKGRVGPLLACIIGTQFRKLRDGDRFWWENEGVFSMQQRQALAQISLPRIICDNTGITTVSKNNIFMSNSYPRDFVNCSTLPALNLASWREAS
# T1 sequence (P05164 165-273 limits assumed): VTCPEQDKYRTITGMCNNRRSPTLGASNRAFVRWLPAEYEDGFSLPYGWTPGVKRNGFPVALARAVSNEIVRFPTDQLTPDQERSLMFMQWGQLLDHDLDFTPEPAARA
row,Compound,MPO kinact/Ki
1,"COc1ncc(C)cc1-c1cc(=O)[nH]c(=S)n1CCN [Example 19, 1-(2-aminoethyl)-6-(2-methoxy-5-methylpyridin-3-yl)-2-thioxo-2(3-dihydropyrimidin-4(1H)-one trifluoroacetate]",1960 1/s per M
2,"CCOc1ccccc1-c1cc(=O)[nH]c(=S)n1CC1CCCO1 (stereo not shown) [Example 102, 6-(2-ethoxyphenyl)-1-(tetrahydrofuran-2-ylmethyl)-2-thioxo-2,3-dihydropyrimidin-4(1H)-one]",4200 1/s per M
3,"COCCn1c(-c2cc3ccccc3n2C)cc(=O)[nH]c1=S [Example 66, 1-(2-methoxyethyl)-6-(1-methyl-1H-indol-2-yl)-2-thioxo-2,3-dihydropyrimidin-4(1H)-one]",1580 1/s per M
4,"COc1ccc(F)cc1-c1cc(=O)[nH]c(=S)n1CC(N)=O [Example 59, 2-[6-(5-fluoro-2-methoxyphenyl)-4-oxo-2-thioxo-3,4-dihydropyrimidin-1(2H)-yl]acetamide]",8480 1/s per M
5,"COc1ccc(Cl)cc1-c1cc(=O)[nH]c(=S)n1CCN=C(N)N [Example 128, 2-{2-[6-(5-chloro-2-methoxyphenyl)-4-oxo-2-thioxo-3,4-dihydropyrimidin-1(2H)-yl]ethyl} guanidine hydrochloride]",7680 1/s per M
6,"COc1ccc(-c2cc(=O)[nH]c(=S)n2CC2CCNCC2)c(OC)c1 [Example 235, 6-(2,4-dimethoxyphenyl)-1-(piperidin-4-ylmethyl)-2-thioxo-2,3-dihydropyrimidin-4(1H)-one hydrochloride]",2690 1/s per M
7,"COCCn1c(-c2nc3ccccc3s2)cc(=O)[nH]c1=S [Example 75, 6-(1,3-benzothiazol-2-yl)-1-(2-methoxyethyl)-2-thioxo-2,3-dihydropyrimidin-4(1H)-one]",2040 1/s per M
8,"NCCCn1c(-c2cccc3[nH]ccc23)cc(=O)[nH]c1=S [Example 30, 1-(3-aminopropyl)-6-(1H-indol-4-yl)-2-thioxo-2,3-dihydropyrimidin-4(1H)-one trifluoroacetate]",5870 1/s per M
9,"COc1ccc(Cl)cc1-c1cc(=O)[nH]c(=S)n1CC1CCNCC1 [Example 132, 6-(5-chloro-2-methoxyphenyl)-1-(piperidin-4-ylmethyl)-2-thioxo-2,3-dihydropyrimidin-4(1H)-one hydrochloride]",3840 1/s per M
10,"COc1ncc(Cl)cc1-c1cc(=O)[nH]c(=S)n1CCCN [Example 93, 1-(3-aminopropyl)-6-(5-chloro-2-methoxypyridin-3-yl)-2-thioxo-2,3-dihydropyrimidin-4(1H)-one hydrochloride]",5120 1/s per M
11,"COc1ncc(Cl)cc1-c1cc(=O)[nH]c(=S)n1CC(N)=O [Example 145, 2-[6-(5-chloro-2-methoxypyridin-3-yl)-4-oxo-2-thioxo-3,4-dihydropyrimidin-1(2H)-yl]acetamide]",5080 1/s per M
12,"NC(=O)Cn1c(-c2ccccc2-n2nccn2)cc(=O)[nH]c1=S [Example 99, 2-{4-oxo-2-thioxo-6-[2-(2H-1,2,3-triazol-2-yl)phenyl]-3,4-dihydropyrimidin-1(2H)-yl}acetamide]",2920 1/s per M
13,"COc1ccc(-c2cc(=O)[nH]c(=S)n2CC(N)=O)c(OC)c1 [Example 174, 2-[6-(2,4-dimethoxyphenyl)-4-oxo-2-thioxo-3,4-dihydropyrimidin-1(2H)-yl]acetamide]",10500 1/s per M
14,"COc1ccc(-c2cc(=O)[nH]c(=S)n2CCN2CCOCC2)c(OC)c1 [Example 251, 6-(2,4-dimethoxyphenyl)-1-(2-morpholin-4-ylethyl)-2-thioxo-2,3-dihydropyrimidin-4(1H)-one]",68 1/s per M
15,"COCCn1c(-c2cccc(C#N)c2)cc(=O)[nH]c1=S [Example 291, 3-[3-(2-methoxyethyl)-6-oxo-2-thioxo-1,2,3,6-tetrahydropyrimidin-4-yl]benzonitrile]",2450 1/s per M
16,"COCCn1c(-c2ccc(F)cc2OC)cc(=O)[nH]c1=S [Example 318, 6-(4-fluoro-2-methoxyphenyl)-1-(2-methoxyethyl)-2-thioxo-2,3-dihydropyrimidin-4(1H)-one]",5240 1/s per M

# Next, values leading:
row,MPO kinact/Ki,Compound
1,2400 1/s per M,"COc1ccc(-c2cc(=O)[nH]c(=S)n2Cc2ccn[nH]2)c(OC)c1 [Example 207, 6-(2,4-dimethoxyphenyl)-1-(1H-pyrazol-5-ylmethyl)-2-thioxo-2,3-dihydropyrimidin-4(1H)-one]"
2,14400 1/s per M,"COCCn1c(-c2cccc3ccoc23)cc(=O)[nH]c1=S [Example 307, 6-(1-benzofuran-7-yl)-1-(2-methoxyethyl)-2-thioxo-2,3-dihydropyrimidin-4(1H)-one]"
3,3060 1/s per M,"COc1ccc(-c2cc(=O)[nH]c(=S)n2Cc2cnc(C)cn2)c(OC)c1 [Example 247, 6-(2,4-dimethoxyphenyl)-1-[(5-methylpyrazin-2-yl)methyl]-2-thioxo-2,3-dihydropyrimidin-4(1H)-one]"
4,963 1/s per M,"COCCn1c(-c2cccc(OC)c2OC)cc(=O)[nH]c1=S [Example 329, 6-(2,3-dimethoxyphenyl)-1-(2-methoxyethyl)-2-thioxo-2,3-dihydropyrimidin-4(1H)-one]"
5,7690 1/s per M,"COc1cc(-c2cc(=O)[nH]c(=S)n2CCO)c(OC)cc1Cl [Example 206, 6-(4-chloro-2,5-dimethoxyphenyl)-1-(2-hydroxyethyl)-2-thioxo-2,3-dihydropyrimidin-4(1H)-one]"
6,7680 1/s per M,"NC(=O)Cn1c(-c2cccc3ccoc23)cc(=O)[nH]c1=S [Example 31, 2-[6-(1-benzofuran-7-yl)-4-oxo-2-thioxo-3,4-dihydropyrimidin-1(2H)-yl]acetamide]"
7,4930 1/s per M,"COc1ccc(-c2cc(=O)[nH]c(=S)n2C[C@@H](O)CN)c(OC)c1 [Example 200, 1-[(2S)-3-amino-2-hydroxypropyl]-6-(2,4-dimethoxyphenyl)-2-thioxo-2,3-dihydropyrimidin-4(1H)-one trifluoroacetate]"
8,4030 1/s per M,"COc1ccc(C#N)cc1-c1cc(=O)[nH]c(=S)n1CC(N)=O [Example 170, 2-[6-(5-cyano-2-methoxyphenyl)-4-oxo-2-thioxo-3,4-dihydropyrimidin-1(2H)-yl]acetamide]"
9,8090 1/s per M,"COc1ccc(C#N)cc1-c1cc(=O)[nH]c(=S)n1CCO [Example 163, 3-[3-(2-hydroxyethyl)-6-oxo-2-thioxo-1,2,3,6-tetrahydropyrimidin-4-yl]-4-methoxybenzonitrile]"
10,2120 1/s per M,"NCCCn1c(-c2n[nH]c3ccccc23)cc(=O)[nH]c1=S [Example 32, 1-(3-aminopropyl)-6-(1H-indazol-3-yl)-2-thioxo-2,3-dihydropyrimidin-4(1H)-one formate]"
11,9870 1/s per M,"COCCn1c(-c2cccc3ccsc23)cc(=O)[nH]c1=S [Example 73, 6-(1-benzothien-7-yl)-1-(2-methoxyethyl)-2-thioxo-2,3-dihydropyrimidin-4(1H)-one]"

# Same assay, conditions: Table 1A, 2 μM H2O2, pH 7.4
row,Compound,MPO kinact/Ki
1,"COc1ccc(-c2cc(=O)[nH]c(=S)n2CC(=O)N(C)CCN)c(OC)c1 [Example 390, N-(2-aminoethyl)-2-[6-(2,4-dimethoxyphenyl)-4-oxo-2-thioxo-3,4-dihydropyrimidin-1(2H)-yl]-N-methylacetamide]",6250 1/s per M
2,"COc1ccc(OCCO)c(-c2cc(=O)[nH]c(=S)n2CC(=O)NCCN)c1 [Example 378, N-(2-aminoethyl)-2-{6-[2-(2-hydroxyethoxy)-5-methoxyphenyl]-4-oxo-2-thioxo-3,4-dihydropyrimidin-1(2H)-yl}acetamide]",5040 1/s per M

# The next lines start with the values.
row,MPO kinact/Ki,Compound
1,9890 1/s per M,"COc1ccc(-c2cc(=O)[nH]c(=S)n2CCC#N)c(OC)c1 [Example 408, 3-[6-(2,4-dimethoxyphenyl)-4-oxo-2-thioxo-3,4-dihydropyrimidin-1(2H)-yl]propanenitrile]"
2,3270 1/s per M,"NC(=O)Cn1c(-c2ccccc2O)cc(=O)[nH]c1=S [Example 368, 2-[6-(2-hydroxyphenyl)-4-oxo-2-thioxo-3,4-dihydropyrimidin-1(2H)-yl]acetamide]"
3,4050 1/s per M,"COc1ccc(-c2cc(=O)[nH]c(=S)n2CC(=O)N2CCNCC2)c(OC)c1 [Example 397, 6-(2,4-dimethoxyphenyl)-1-[2-oxo-2-(piperazin-1-yl)ethyl]-2-thioxo-2,3-dihydropyrimidin-4(1H)-one]"
4,2940 1/s per M,"NCCn1c(-c2ccc3c(c2)OCCO3)cc(=O)[nH]c1=S [Example 357, 1-(2-aminoethyl)-6-(2,3-dihydro-1,4-benzodioxin-6-yl)-2-thioxo-2,3-dihydropyrimidin-4(1H)-one]"
5,7550 1/s per M,"COc1ccc(-c2cc(=O)[nH]c(=S)n2CC(=O)NC2CNC2)c(OC)c1 [Example 438, N-(azetidin-3-yl)-2-[6-(2,4-dimethoxyphenyl)-4-oxo-2-thioxo-3,4-dihydropyrimidin-1(2H)-yl]acetamide]"
6,2690 1/s per M,"NCCn1c(-c2cccc3ncsc23)cc(=O)[nH]c1=S [Example 362, 1-(2-aminoethyl)-6-(1,3-benzothiazol-7-yl)-2-thioxo-2,3-dihydropyrimidin-4(1H)-one]"
7,13600 1/s per M,"COc1ccc(-c2cc(=O)[nH]c(=S)n2CC(=O)N[C@H]2CCNC2)c(OC)c1 [Example 393, 2-[6-(2,4-dimethoxyphenyl)-4-oxo-2-thioxo-3,4-dihydropyrimidin-1(2H)-yl]-N-[(3S)-pyrrolidin-3-yl]acetamide]"
8,9280 1/s per M,"COc1cc(Cl)ccc1-c1cc(=O)[nH]c(=S)n1CC(N)=O [Example 417, 2-[6-(4-chloro-2-methoxyphenyl)-4-oxo-2-thioxo-3,4-dihydropyrimidin-1(2H)-yl]acetamide]"
